Results: patent US11717471B2, “Hydrogel microcapsules” (ISP Investments LLC, priority 2010, dated 2023)
Values after ≈ are worked out from the molar mass of the structure shown.

Legend:
[1] = Solubility of amine monomers of Formula I in water; format: physicochemical
Text: The insolubility point was reached when a distinct two separate layers was observed.

[2] = Material Safety Data Sheet from Arkema Inc for Norsocryl; cited from earlier work
[3] = 0.1 g amine monomer/100 g deionised water
[4] = 0.2 g amine monomer/100 g deionised water
[5] = 0.3 g amine monomer/100 g deionised water
[6] = 0.4 g amine monomer/100 g deionised water
[7] = 0.5 g amine monomer/100 g deionised water
[8] = 1.0 g amine monomer/100 g deionised water
[9] = 1.5 g amine monomer/100 g deionised water
[10] = 2.0 g amine monomer/100 g deionised water
[11] = 2.5 g amine monomer/100 g deionised water
[12] = 5.0 g amine monomer/100 g deionised water
[13] = 7.5 g amine monomer/100 g deionised water
[14] = 10.0 g amine monomer/100 g deionised water
[15] = 12.5 g amine monomer/100 g deionised water
[16] = 15.0 g amine monomer/100 g deionised water

SMILES	solubility in water ([1]; quaternized monomer)	solubility in water [1, 3]	solubility in water [1, 4]	solubility in water [1, 5]	solubility in water [1, 6]	solubility in water [1, 7]	solubility in water [1, 8]	solubility in water [1, 9]	solubility in water [1, 10]	solubility in water [1, 11]	solubility in water [1, 12]	solubility in water [1, 13]	solubility in water [1, 14]	solubility in water [1, 15]	solubility in water [1, 16]	solubility in water ([1]; estimated from Table 2)	solubility in water, published literature value [2] [g/L]
C=C(C)C(=O)OCC[N+](C)(CC)CC.COS(=O)(=O)[O-] [DEAEMA Quat DMS, Diethylaminoethyl methacrylate dimethyl sulphate quaternary ammonium form]	completely water soluble																
C=C(C)C(=O)OCCN(CC)CC [DEAEMA, diethylaminoethyl methacrylate]		soluble	insoluble	insoluble	insoluble	insoluble	insoluble	insoluble	insoluble	insoluble	insoluble	insoluble	insoluble	insoluble	insoluble		
C=C(C)C(=O)OCCN(C(C)C)C(C)C [DPAEMA, Diisopropylaminoethyl methacrylate]		soluble	insoluble	insoluble	insoluble	insoluble	insoluble	insoluble	insoluble	insoluble	insoluble	insoluble	insoluble	insoluble	insoluble		
C=C(C)C(=O)OCCNC(C)(C)C [TBAEMA, tertiary-butylaminoethyl methacrylate]		soluble	soluble	soluble	soluble	soluble	soluble	soluble	insoluble	insoluble	insoluble	insoluble	insoluble	insoluble	insoluble	less than 2 g/100 g water	18 (≈ 97.2 mM)
